In one experiment the target is T1, OGA (Homo sapiens, UniProt O60502).
T1 construct: made in house
T1 sequence (O60502 1-916): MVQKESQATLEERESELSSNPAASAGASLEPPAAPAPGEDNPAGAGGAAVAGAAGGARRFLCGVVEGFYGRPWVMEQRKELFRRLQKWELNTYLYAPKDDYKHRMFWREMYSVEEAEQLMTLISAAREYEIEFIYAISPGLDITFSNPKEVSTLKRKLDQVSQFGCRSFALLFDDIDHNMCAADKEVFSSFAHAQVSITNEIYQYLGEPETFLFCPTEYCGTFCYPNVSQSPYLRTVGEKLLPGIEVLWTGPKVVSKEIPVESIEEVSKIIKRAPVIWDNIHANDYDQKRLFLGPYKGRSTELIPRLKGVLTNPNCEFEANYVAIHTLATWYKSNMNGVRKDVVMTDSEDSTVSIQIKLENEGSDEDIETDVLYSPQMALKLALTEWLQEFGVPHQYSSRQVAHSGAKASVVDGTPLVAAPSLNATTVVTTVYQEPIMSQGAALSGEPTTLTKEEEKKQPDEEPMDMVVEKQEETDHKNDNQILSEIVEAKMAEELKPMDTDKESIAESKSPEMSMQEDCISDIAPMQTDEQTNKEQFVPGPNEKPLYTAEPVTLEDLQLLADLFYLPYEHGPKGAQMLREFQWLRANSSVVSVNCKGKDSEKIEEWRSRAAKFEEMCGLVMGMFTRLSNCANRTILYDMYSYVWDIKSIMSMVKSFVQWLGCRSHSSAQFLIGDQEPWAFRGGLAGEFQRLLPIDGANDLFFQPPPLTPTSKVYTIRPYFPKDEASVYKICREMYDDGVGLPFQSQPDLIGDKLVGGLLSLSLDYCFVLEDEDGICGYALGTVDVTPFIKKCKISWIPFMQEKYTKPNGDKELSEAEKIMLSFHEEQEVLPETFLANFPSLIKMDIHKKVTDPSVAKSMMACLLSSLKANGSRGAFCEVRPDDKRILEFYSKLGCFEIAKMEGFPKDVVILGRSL
The experiment in a line: OGA kinetics, Michaelis-Menten hydrolysis of pMP glycosides. As to conditions: 37° C. The class given is biochemical. The protocol: OGA kinetics: Synthesis and characterization of para-methoxyphenyl-5SGlcNAc is described in Example II. Kinetics were performed at 37° C. in PBS, pH 7.4 in a total volume of […]. Substrate concentrations of 25 μM to 1.5 mM were used for pMP-GlcNAc and 25 to 800 μM for pMP-5SGlcNAc. OGA (which was over-expressed and purified as described in Ref. ^42) was used at a concentration of 1 μM for pMP-GlcNAc and 3.6 μM for pMP-5SGlcNAc. Rates were monitored at a wavelength of 296 nm over the course of 10-20 min. Data were fit to the Michaelis-Menten equation in GRAFIT^41 and the kcat and KM values determined.
As for `COc1ccc(O[C@H]2S[C@H](CO)[C@@H](O)[C@H](O)[C@H]2NC(C)=O)cc1` [Compound 14, para-Methoxyphenyl 2-acetamido-2-deoxy-5-thio-α-D-glucopyranoside], the “kcat for OGA hydrolysis” value came out at 0.28 nmol s^−1 me. `COc1ccc(O[C@@H]2O[C@H](CO)[C@@H](O)[C@H](O)[C@H]2NC(C)=O)cc1` [pMP-GlcNAc, para-methoxyphenyl-GlcNAc, reference compound]: the Km is 350 µM and the “kcat for OGA hydrolysis” value turned out to be 14.3 nmol/s/mg.

Staying with this experiment, now noted: human OGA.
For the compound `COc1ccc(O[C@H]2S[C@H](CO)[C@@H](O)[C@H](O)[C@H]2NC(C)=O)cc1` [Compound 14, para-Methoxyphenyl 2-acetamido-2-deoxy-5-thio-α-D-glucopyranoside], the “Vmax/E0KM for OGA hydrolysis” value is recorded as 8.1 μmol s^−1 mg^−1 M^−1 and the “fold less efficiently processed by OGA than pMP-GlcNAc” value is given as 5 fold. With `COc1ccc(O[C@@H]2O[C@H](CO)[C@@H](O)[C@H](O)[C@H]2NC(C)=O)cc1` [pMP-GlcNAc, para-methoxyphenyl-GlcNAc, reference compound], the “Vmax/E0KM for OGA hydrolysis” value came to 40.7 μmol s^−1 mg^−1 M^−1.

In a further experiment the test system is O-GlcNAc levels in COS-7 cells. As to the kind of experiment: Western blot of O-GlcNAc levels (CTD110.6) in treated COS-7 cells. The class given is cell-based, African green monkey. As to conditions: 50 μM, 24 h. The protocol:
Cell culture: Cells were grown in an incubator at 37° C. and 5% CO2 atmosphere. Media and serum were purchased from Invitrogen. COS-7 cells were cultured in Dulbecco's modified Eagle's medium (DMEM) with 5% fetal bovine serum (FBS), and were typically 80-100% confluent prior to experimentation. HepG2, SK-N-SH, and EMEG32^−/− cells were cultured in Dulbecco's modified Eagle's medium (DMEM) with 5% fetal bovine serum (FBS), CHO cells in DMEMF-12 with 5% FBS and PC12 cells in DMEM with 5% FBS and 5% horse serum. Prior to experimentation, PC12 cells were plated at a density of 3-4×10^5 cells10 cm plate, which had been pre-treated with 5 μgcm^2 rat tail collagen (BD Biosciences). Cells were differentiated in DMEM containing 1% horse serum, in the presence of 2.5S mouse nerve growth factor (Chemicon) at a final concentration of 25 ng mL^−1, for 4-5 days prior to treatment. Other cell lines were 80-100% confluent prior to treatment. Following treatment with (Ac-)5SGlcNAc, using various conditions, cells were washed gently with PBS, lysed in SDS loading buffer and boiled for 10 minutes. Mouse hybridoma cells (obtained from the Developmental Studies Hybridoma Bank; antibody E7 for (:1-tubulin) were cultured in RPMI40 with 10% FBS. Prior to treatment with Ac-5SGlcNAc, hybridoma cells were cultured for 2 days in RPMI40 with 5% FBS, and during treatment in RPMI40 with no serum. Cells were collected, centrifuged (800 x g, 5 min) and the supernatant removed. Cells were washed with PBS, centrifuged, the pellet resuspended in SDS loading buffer and boiled. The supernatant after centrifugation, which contained the IgG antibody produced by the cells, was used for immunoprecipitation (see below for details).
Westernlectin blots: Samples were run on 10% SDS polyacrylamide gels and transferred onto nitrocellulose membranes (Biorad). Membranes were blocked for 1 h in PBS containing 0.1% Tween-20 (PBS-T) containing 1% (unless otherwise stated) bovine serum albumin (BSA), and probed with the appropriate primary antibody or lectin in 1% BSA in PBS-T overnight at 4° C. Blots were washed for 1 hr with PBS-T, and blocked for a further 30 min with 1% BSA in PBS-T at room temperature. They were then probed with the appropriate horseradish peroxidise (HRP)-conjugated secondary antibodyprobe in 1% BSA in PBS-T at room temperature for 1 h, followed by washing in PBS-T for 1 h. Blots were developed with SuperSignal West Pico Chemiluminescent Substrate (Pierce) and exposed to CL-XPosure film (Pierce). Densitometry was performed using ImageQuant 5.2 (Molecular Dynamics), and fits to the data were made using GRAFIT^41.
Antibodieslectins: O-GlcNAc levels were assessed primarily using CTD110.6 (Covance), but RL2 (Abcam) and HGAC85 (Abcam) were also tested. Actin was probed using JLA20 (Developmental Studies Hybridoma Bank). OGA levels were assessed using a polyclonal anti-OGA antibody which was a kind gift from Dr. Gerald Hart and OGT levels using H-300 (Santa Cruz Biotechnology). nup62 was probed using mAb 414 (Covance). Secondary antibodies employed (HRP-conjugated goat anti-mouse IgM, goat anti-mouse IgG, goat anti-chicken IgY and goat anti-rabbit IgG) were obtained from Santa Cruz Biotechnology. Biotinylated-ConA, PHA-L, SNA and MAA were purchased from EY Laboratories, and biotinylated-GNA from Vector Laboratories. HRP-conjugated streptavidin (Pierce) was used as a probe for the biotinylated lectins.
Analogues (9, 10, 17-41) were tested in COS-7 cells, dosed at a final concentration of 50 μM in DMSO for 24 h. Following treatment, cells were washed with PBS, harvested into SDS-PAGE loading buffer and analyzed by western blot using standard procedures; blots were probed with the anti-O-GlcNAc antibody (CTD 110.6).
Take `CC(=O)OCC1SC(OC(C)=O)C(NC(=O)Cc2cccc3ccccc23)C(OC(C)=O)C1OC(C)=O` [Compound 35, N-(1-naphthylacetyl)-1,3,4,6-tetra-O-acetyl-α-D-5-thio-glucosamine]: the “effect on O-GlcNAc levels at single dose” value is listed as “decreased O-GlcNAc levels in cells”.

As for `CC(=O)OCC1SC(OC(C)=O)C(NC(=O)CC(C)C)C(OC(C)=O)C1OC(C)=O` (stereo not drawn) [Compound 25], the “effect on O-GlcNAc levels at single dose” value is “decreased O-GlcNAc levels in cells”.

Turning to `CCCCC(=O)NC1C(OC(C)=O)SC(COC(C)=O)C(OC(C)=O)C1OC(C)=O` [Compound 23, N-(n-valeryl)-1,3,4,6-tetra-O-acetyl-α-D-5-thio-glucosamine], the “effect on O-GlcNAc levels at single dose” value is on record as “decreased O-GlcNAc levels in cells”. Still for that read-out and setting: as for `CCC(=O)NC1C(OC(C)=O)SC(COC(C)=O)C(OC(C)=O)C1OC(C)=O` [Compound 17, N-proprionyl-1,3,4,6-tetra-O-acetyl-α-D-5-thio-glucosamine], the entry is “decreased O-GlcNAc levels in cells”. Same read-out and setting: the value for `CCCC(=O)NC1C(OC(C)=O)SC(COC(C)=O)C(OC(C)=O)C1OC(C)=O` [Compound 19, N-(n-butyryl)-1,3,4,6-tetra-O-acetyl-a-D-5-thio-glucosamine] was “decreased O-GlcNAc levels in cells”. Regarding `CC[C@H](C)CC(=O)NC1C(OC(C)=O)SC(COC(C)=O)C(OC(C)=O)C1OC(C)=O` (stereo partly drawn) [Compound 37, N-[(S)-methylvaleryl]-1,3,4,6-tetra-O-acetyl-α-D-5-thio-glucosamine], the “effect on O-GlcNAc levels at single dose” value is on record as “decreased O-GlcNAc levels in cells” and the “extent of decrease of O-GlcNAc levels relative to parent compound 9” value was “comparable extent to the parent compound”. On to `O=C(Cc1cccc2ccccc12)NC1C(O)SC(CO)C(O)C1O` [Compound 36, N-(1-Naphthylacetyl)-α-D-5-thio-glucosamine], for which the “effect on O-GlcNAc levels at single dose” value is reported as “decreased O-GlcNAc levels in cells”.

`O=C(CC1CCCCC1)NC1C(O)SC(CO)C(O)C1O` [Compound 34, N-(2-cyclohexylacetyl)-a-D-5-thio-glucosamine]: the “effect on O-GlcNAc levels at single dose” value is given as “decreased O-GlcNAc levels in cells”.

For `CC(=O)OC[C@H]1S[C@H](OC(C)=O)[C@H](N)[C@@H](OC(C)=O)[C@@H]1OC(C)=O.O=S(=O)(O)O` [Compound 31′, 1,3,4,6-tetra-O-acetyl-a-D-5-thio-glucosamine sulphuric acid salt], the “effect on O-GlcNAc levels at single dose” value was “decreased O-GlcNAc levels in cells”. For `CCC[C@H](C)C(=O)N[C@@H]1[C@@H](O)[C@H](O)[C@@H](CO)S[C@@H]1O` [Compound 38, N-[(S)-2-methylvaleryl]-a-D-5-thio-glucosamine], the “effect on O-GlcNAc levels at single dose” value was “decreased O-GlcNAc levels in cells” and the “extent of decrease of O-GlcNAc levels relative to parent compound 9” value is given as “comparable extent to the parent compound”. For the compound `CCCCCC(=O)NC1C(OC(C)=O)SC(COC(C)=O)C(OC(C)=O)C1OC(C)=O` [Compound 27, N-hexonoyl-1,3,4,6-tetra-O-acetyl-a-D-5-thio-glucosamine], the “effect on O-GlcNAc levels at single dose” value is recorded as “decreased O-GlcNAc levels in cells” and the “extent of decrease of O-GlcNAc levels relative to parent compound 9” value was “comparable extent to the parent compound”. Regarding `CC(=O)OCC1SC(OC(C)=O)C(NC(=O)CC2CCCCC2)C(OC(C)=O)C1OC(C)=O` [Compound 33, N-(2-Cyclohexylacetyl)-1,3,4,6-tetra-O-acetyl-a-D-5-thio-glucosamine], the “effect on O-GlcNAc levels at single dose” value is “decreased O-GlcNAc levels in cells”. For the compound `CC(=O)OCC1SC(OC(C)=O)C(NC(=O)C(C)C)C(OC(C)=O)C1OC(C)=O` [Compound 21, N-(i-butyryl)-1,3,4,6-tetra-O-acetyl-a-D-5-thio-glucosamine], the “effect on O-GlcNAc levels at single dose” value is on record as “decreased O-GlcNAc levels in cells”.

The same experiment, now with this note: 24 hours.
Regarding `CC(=O)NC1C(O)SC(CO)C(O)C1O` [Compound 10, N-acetyl-α-D-5-thio-glucosamine], the “effect on O-GlcNAc levels, dose response” value is “decreased O-GlcNAc levels in a dose-dependent fashion”.

Staying with this experiment, now noted: Chlorocebus sabaeus, 24 h, densitometry of western blot, read-out: EC50 for reduction of O-GlcNAc levels.
Consider `CC(=O)NC1C(O)SC(CO)C(O)C1O` [Compound 10, N-acetyl-α-D-5-thio-glucosamine], for which the 50% effective concentration (EC50) was 700 µM.
